US20090176968A1, “Preparation of Triazole Containing Metal Chelating Agents” (PAUL SCHERRER INSTITUT, priority 2006, published 2009)

melting point | SMILES
> 195 °C (dec.) | NC(Cc1cn(Cc2ccccc2)nn1)C(=O)O (stereo not drawn) [Compound L1]
272 to 274 °C | CCOC(=O)Cn1cc(C[C@H](N)C(=O)O)nn1 [Compound L3]
> 220 °C (dec.) | N[C@@H](Cn1cc(Cc2ccccc2)nn1)C(=O)O [Compound L7]
